Test results as given in patent US5892063A (Hauser, Inc., priority 1997, dated 1999).

How the values were obtained:
HT29 = test: SRB growth screen, colon cancer HT29; conditions: Homo sapiens, HT-29, 48 h
SF-539 = test: SRB growth screen, CNS cancer SF-539; conditions: Homo sapiens, SF-539, 48 h
IGROV1 = test: SRB growth screen, ovarian cancer IGROV1; conditions: Homo sapiens, IGROV-1, 48 h
K-562 = test: SRB growth screen, leukemia K-562; conditions: Homo sapiens, K562, 48 h
MALME-3M = test: SRB growth screen, melanoma MALME-3M; conditions: Homo sapiens, 48 h
M14 = test: SRB growth screen, melanoma M14; conditions: Homo sapiens, M14, 48 h
HL-60(TB) = test: SRB growth screen, leukemia HL-60(TB); conditions: Homo sapiens, HL-60, 48 h
BT-549 = test: SRB growth screen, breast cancer BT-549; conditions: Homo sapiens, BT-549, 48 h
HCT-116 = test: SRB growth screen, colon cancer HCT-116; conditions: Homo sapiens, HCT-116, 48 h
MDA-MB-435 = test: SRB growth screen, breast cancer MDA-MB-435; assay type: cell-based; conditions: Homo sapiens, MDA-MB-435, 48 h
UACC-62 = test: SRB growth screen, melanoma UACC-62; conditions: Homo sapiens, UACC-62, 48 h
COLO 205 = test: SRB growth screen, colon cancer COLO 205; conditions: Homo sapiens, COLO 205, 48 h
U251 = test: SRB growth screen, CNS cancer U251; conditions: Homo sapiens, U-251, 48 h
PC-3 = test: SRB growth screen, prostate cancer PC-3; conditions: Homo sapiens, PC-3, 48 h
NCI-H460 = conditions: Homo sapiens, NCI-H460, 48 h
SN12C = test: SRB growth screen, renal cancer SN12C; conditions: Homo sapiens, 48 h
MDA-N = test: SRB growth screen, breast cancer MDA-N; conditions: Homo sapiens, 48 h
SR = test: SRB growth screen, leukemia SR; conditions: Homo sapiens, 48 h
LOX-IMVI = test: SRB growth screen, melanoma LOX-IMVI; conditions: Homo sapiens, 48 h
RXF-393 = test: SRB growth screen, renal cancer RXF-393; conditions: Homo sapiens, RXF 393, 48 h
HCC-2998 = test: SRB growth screen, colon cancer HCC-2998; conditions: Homo sapiens, HCC 2998, 48 h
HOP-62 = conditions: Homo sapiens, HOP-62, 48 h
MCF7/ADR-RES = test: SRB growth screen, breast cancer MCF7/ADR-RES; conditions: Homo sapiens, 48 h
MCF7 = test: SRB growth screen, breast cancer MCF7; conditions: Homo sapiens, MCF7, 48 h
SK-MEL-2 = test: SRB growth screen, melanoma SK-MEL-2; conditions: Homo sapiens, SK-MEL-2, 48 h
DU-145 = test: SRB growth screen, prostate cancer DU-145; conditions: Homo sapiens, DU-145, 48 h
[1] = read-out: Log10 GI50 (converted)
[2] = read-out: Log10 LC50 (converted)

## CC(=O)O[C@H]1C(=O)[C@@]2(C)[C@H]([C@H](OC(=O)c3ccccc3)[C@]3(O)C[C@H](OC(=O)[C@H](O)[C@@H](NC(=O)C4(C)OC4C)c4ccccc4)C(C)=C1C3(C)C)[C@]1(OC(C)=O)CO[C@@H]1C[C@@H]2O (stereo partly drawn) [Ceph-epoxide, cephalomannine epoxide]
HT29; [1]
  GI50: < 10 nM
HT29; [2]
  CC50: > 100000 nM
HT29; read-out: Log10 TGI
  IC (TGI): 115 nM
SF-539; [1]
  GI50: < 10 nM
SF-539; [2]
  CC50: 40.7 nM
SF-539; read-out: Log10 TGI
  IC (TGI): < 10 nM
IGROV1; [1]
  GI50: < 10 nM
IGROV1; [2]
  CC50: > 100000 nM
K-562; [1]
  GI50: < 10 nM
K-562; [2]
  CC50: > 100000 nM
K-562; read-out: Log10 TGI
  IC (TGI): > 100000 nM
MALME-3M; [2]
  CC50: > 100000 nM
MALME-3M; read-out: Log10 TGI
  IC (TGI): > 100000 nM
M14; [1]
  GI50: < 10 nM
M14; [2]
  CC50: > 100000 nM
HL-60(TB); [1]
  GI50: < 10 nM
HL-60(TB); [2]
  CC50: > 100000 nM
HL-60(TB); read-out: Log10 TGI
  IC (TGI): < 10 nM
BT-549; [1]
  GI50: 10 nM
BT-549; [2]
  CC50: < 100000 nM
BT-549; read-out: Log10 TGI
  IC (TGI): 97.7 nM
HCT-116; [1]
  GI50: < 10 nM
HCT-116; [2]
  CC50: > 100000 nM
MDA-MB-435; [1]
  GI50: < 10 nM
MDA-MB-435; read-out: Log10 TGI
  IC (TGI): < 10 nM
UACC-62; [1]
  GI50: < 10 nM
UACC-62; [2]
  CC50: > 100000 nM
UACC-62; read-out: Log10 TGI
  IC (TGI): > 100000 nM
COLO 205; [1]
  GI50: < 10 nM
COLO 205; [2]
  CC50: 603 nM
COLO 205; read-out: Log10 TGI
  IC (TGI): 26.9 nM
U251; [1]
  GI50: < 10 nM
U251; [2]
  CC50: > 100000 nM
PC-3; [1]
  GI50: 11.2 nM
PC-3; [2]
  CC50: > 100000 nM
PC-3; read-out: Log10 TGI
  IC (TGI): > 100000 nM
NCI-H460; [1]
  GI50: < 10 nM
NCI-H460; [2]
  CC50: > 100000 nM
NCI-H460; read-out: Log10 TGI
  IC (TGI): > 100000 nM
SN12C; [1]
  GI50: < 10 nM
SN12C; [2]
  CC50: > 100000 nM
SN12C; read-out: Log10 TGI
  IC (TGI): > 100000 nM
MDA-N; [1]
  GI50: < 10 nM
MDA-N; [2]
  CC50: < 10 nM
MDA-N; read-out: Log10 TGI
  IC (TGI): < 10 nM
SR; [1]
  GI50: < 10 nM
SR; [2]
  CC50: > 100000 nM
LOX-IMVI; [1]
  GI50: < 10 nM
LOX-IMVI; [2]
  CC50: > 100000 nM
LOX-IMVI; read-out: Log10 TGI
  IC (TGI): 21400 nM
RXF-393; [1]
  GI50: 214 nM
RXF-393; [2]
  CC50: > 100000 nM
RXF-393; read-out: Log10 TGI
  IC (TGI): > 100000 nM
HCC-2998; [1]
  GI50: < 10 nM
HCC-2998; [2]
  CC50: > 100000 nM
HCC-2998; read-out: Log10 TGI
  IC (TGI): 45.7 nM
HOP-62; [1]
  GI50: 24.5 nM
HOP-62; [2]
  CC50: > 100000 nM
MCF7/ADR-RES; [1]
  GI50: 13800 nM
MCF7/ADR-RES; [2]
  CC50: > 100000 nM
MCF7/ADR-RES; read-out: Log10 TGI
  IC (TGI): 61700 nM
MCF7; [1]
  GI50: < 10 nM
MCF7; [2]
  CC50: > 100000 nM
MCF7; read-out: Log10 TGI
  IC (TGI): > 100000 nM
SK-MEL-2; [1]
  GI50: < 10 nM
SK-MEL-2; [2]
  CC50: > 100000 nM
DU-145; [1]
  GI50: 26.3 nM
DU-145; [2]
  CC50: > 100000 nM
DU-145; read-out: Log10 TGI
  IC (TGI): 145 nM
